Measured values from patent publication US8946215B2, “Hydroxy-substituted imidazo[1,2-a]pyridinecarboxamides and their use” (Bayer Pharma Aktiengesellschaft, priority 2012, dated 2015).
Counter-ions that a name gives are not always drawn.

The compounds below were run against T1, recombinant guanylate cyclase reporter cell line (Rattus norvegicus, UniProt P19686+P20595) (assay: Action on recombinant guanylate cyclase reporter cell line). Settings: in some cases mean values obtained from individual determinations.
T1 construct: expressed in transfected cells
T1 sequence (P20595 1-619): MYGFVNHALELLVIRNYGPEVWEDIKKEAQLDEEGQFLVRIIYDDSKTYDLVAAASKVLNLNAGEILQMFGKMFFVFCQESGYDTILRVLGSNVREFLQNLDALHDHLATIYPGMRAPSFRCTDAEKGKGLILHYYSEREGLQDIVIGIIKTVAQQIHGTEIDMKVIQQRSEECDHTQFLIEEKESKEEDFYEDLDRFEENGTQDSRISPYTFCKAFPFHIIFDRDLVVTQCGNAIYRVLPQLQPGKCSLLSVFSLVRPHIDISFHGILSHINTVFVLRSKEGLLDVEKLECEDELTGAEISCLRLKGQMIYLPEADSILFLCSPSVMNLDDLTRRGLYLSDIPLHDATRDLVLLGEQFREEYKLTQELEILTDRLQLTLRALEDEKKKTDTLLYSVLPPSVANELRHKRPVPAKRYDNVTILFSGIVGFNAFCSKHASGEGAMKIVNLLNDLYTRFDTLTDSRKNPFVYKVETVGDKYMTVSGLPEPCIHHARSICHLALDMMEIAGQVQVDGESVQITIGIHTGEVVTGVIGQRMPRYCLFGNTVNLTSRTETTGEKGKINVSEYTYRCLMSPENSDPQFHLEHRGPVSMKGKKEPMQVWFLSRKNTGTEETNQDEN
T1 sequence (P19686 1-690): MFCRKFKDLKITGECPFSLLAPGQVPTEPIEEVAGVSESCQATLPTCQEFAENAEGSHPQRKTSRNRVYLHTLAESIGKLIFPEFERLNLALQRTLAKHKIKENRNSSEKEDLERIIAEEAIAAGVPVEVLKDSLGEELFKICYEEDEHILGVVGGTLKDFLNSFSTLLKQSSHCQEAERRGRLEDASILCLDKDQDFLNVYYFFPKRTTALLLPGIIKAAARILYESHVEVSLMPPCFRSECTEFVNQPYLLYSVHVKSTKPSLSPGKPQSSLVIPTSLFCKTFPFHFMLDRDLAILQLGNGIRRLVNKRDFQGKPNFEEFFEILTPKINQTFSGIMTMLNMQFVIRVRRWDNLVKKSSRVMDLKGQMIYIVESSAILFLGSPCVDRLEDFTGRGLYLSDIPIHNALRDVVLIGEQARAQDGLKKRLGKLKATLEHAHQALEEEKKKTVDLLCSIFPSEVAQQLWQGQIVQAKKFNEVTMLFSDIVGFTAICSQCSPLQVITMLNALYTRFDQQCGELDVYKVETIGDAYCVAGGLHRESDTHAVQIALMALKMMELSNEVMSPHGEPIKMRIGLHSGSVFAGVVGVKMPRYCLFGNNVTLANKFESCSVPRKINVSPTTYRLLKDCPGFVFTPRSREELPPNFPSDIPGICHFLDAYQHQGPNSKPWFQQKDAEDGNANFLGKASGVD
Format: cell-based
In short: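 Cell-based reporter assay with recombinant guanylate cyclase expressed in a reporter cell line, per a published method. Activity reported as minimal effective concentration (MEC), in some cases as the mean of individual determinations.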

SMILES | MEC (minimal effective concentration) [µM]
CCCc1nc2c(OCC3CCCCC3)cccn2c1C(=O)N[C@@H](C)CO [Example 57, 8-(cyclohexylmethoxy)-N-[(2S)-1-hydroxypropan-2-yl]-2-propylimidazo[1,2-a]-pyridine-3-carboxamide] | 1.0
CCc1nc2c(OCC3CCC3)cccn2c1C(=O)N[C@@H](C)CO [Example 58, 8-(cyclobutylmethoxy)-2-ethyl-N-[(2S)-1-hydroxypropan-2-yl]imidazo[1,2-a]pyridine-3-carboxamide formic acid salt] | 3.0
C[C@@H](CO)NC(=O)c1cnc2c(OCC3CCCCC3)cccn12 [Example 59, 8-(cyclohexylmethoxy)-N-[(2S)-1-hydroxypropan-2-yl]imidazo[1,2-a]pyridine-3-carboxamide] | 3.0
CCCC[C@H](CO)NC(=O)c1c(C)nc2c(OCc3c(F)cccc3F)cc(CC)cn12 [Example 60, 8-[(2,6-difluorobenzyl)oxy]-6-ethyl-N-[(2R)-1-hydroxyhexan-2-yl]-2-methylimidazo[1,2-a]pyridine-3-carboxamide] | 0.1
CCCC[C@H](CO)NC(=O)c1c(C)nc2c(OCc3c(F)cccc3F)cc(C3CC3)cn12 [Example 61, 6-cyclopropyl-8-[(2,6-difluorobenzyl)oxy]-N-[(2R)-1-hydroxyhexan-2-yl]-2-methylimidazo[1,2-a]pyridine-3-carboxamide] | 1.0
CCCC[C@H](CO)NC(=O)c1cnc2c(OCc3c(F)cccc3F)cccn12 [Example 62, 8-[(2,6-difluorobenzyl)oxy]-N-[(2R)-1-hydroxyhexan-2-yl]imidazo[1,2-a]pyridine-3-carboxamide] | 0.3
CCCC[C@H](CO)NC(=O)c1c(C)nc2c(OCc3c(F)cccc3F)cc(N3CCOCC3)cn12 [Example 63, 8-[(2,6-difluorobenzyl)oxy]-N-[(2R)-1-hydroxyhexan-2-yl]-2-methyl-6-(morpholin-4-yl)imidazo[1,2-a]pyridine-3-carboxamide] | 3.0
CCCC[C@H](CO)NC(=O)c1c(C)nc2c(OCc3c(F)cccc3F)cc(N3CCCC3)cn12 [Example 64, 8-[(2,6-difluorobenzyl)oxy]-N-[(2R)-1-hydroxyhexan-2-yl]-2-methyl-6-(pyrrolidin-1-yl)imidazo[1,2-a]pyridine-3-carboxamide] | 3.0
CCCC[C@H](CO)NC(=O)c1c(C)nc2c(OCc3c(F)cccc3F)cc(Br)cn12 [Example 65, 6-bromo-8-[(2,6-difluorobenzyl)oxy]-N-[(2R)-1-hydroxyhexan-2-yl]-2-methylimidazo[1,2-a]pyridine-3-carboxamide] | 0.03
CCC[C@H](CO)NC(=O)c1c(C)nc2c(OCC3CCCCC3)cccn12 [Example 67, 8-(cyclohexylmethoxy)-N-[(2R)-1-hydroxypentan-2-yl]-2-methylimidazo[1,2-a]pyridine-3-carboxamide] | 0.03
Cc1nc2c(OCC3CCCCC3)cccn2c1C(=O)NC[C@H](O)CO [Example 68, 8-(cyclohexylmethoxy)-N-[(2S)-2,3-dihydroxypropyl]-2-methylimidazo[1,2-a]pyridine-3-carboxamide] | 0.03
CC[C@H](CO)NC(=O)c1c(C)nc2c(OCC3CCCCC3)cccn12 [Example 72, 8-(cyclohexylmethoxy)-N-[(2R)-1-hydroxybutan-2-yl]-2-methylimidazo[1,2-a]pyridine-3-carboxamide] | 0.1
Cc1nc2c(OCC3CCCCC3)cccn2c1C(=O)NCCCCO [Example 74, 8-(cyclohexylmethoxy)-N-(4-hydroxybutyl)-2-methylimidazo[1,2-a]pyridine-3-carboxamide] | 0.2
Cc1nc2c(OCC3CCCCC3)cccn2c1C(=O)N[C@@H](C)CO [Example 75, 8-(cyclohexylmethoxy)-N-[(2S)-1-hydroxypropan-2-yl]-2-methylimidazo[1,2-a]pyridine-3-carboxamide] | 0.22
Cc1nc2c(OCC3CCCCC3)cccn2c1C(=O)NCCO [Example 76, 8-(cyclohexylmethoxy)-N-(2-hydroxyethyl)-2-methylimidazo[1,2-a]pyridine-3-carboxamide formate] | 0.3
Cc1nc2c(OCC3CCCCC3)cccn2c1C(=O)NC(CO)(CO)CO [Example 77, 8-(cyclohexylmethoxy)-N-[1,3-dihydroxy-2-(hydroxymethyl)propan-2-yl]-2-methylimidazo[1,2-a]pyridine-3-carboxamide formate] | 0.3
COCC(O)CNC(=O)c1c(C)nc2c(OCC3CCCCC3)cccn12 (centres unmarked) [Example 79, 8-(cyclohexylmethoxy)-N-(2-hydroxy-3-methoxypropyl)-2-methylimidazo[1,2-a]pyridine-3-carboxamide] | 0.3
Cc1nc2c(OCC3CCCCC3)cccn2c1C(=O)NC[C@@H](O)CO [Example 80, 8-(cyclohexylmethoxy)-N-[(2R)-2,3-dihydroxypropyl]-2-methylimidazo[1,2-a]pyridine-3-carboxamide] | 0.3
Cc1nc2c(OCC3CCCCC3)cccn2c1C(=O)NCCCO [Example 82, 8-(cyclohexylmethoxy)-N-(3-hydroxypropyl)-2-methylimidazo[1,2-a]pyridine-3-carboxamide] | 0.3
Cc1nc2c(OCC3CCCCC3)cccn2c1C(=O)NC1CCCC1O (centres unmarked) [Example 83, 8-(cyclohexylmethoxy)-N-(2-hydroxycyclopentyl)-2-methylimidazo[1,2-a]pyridine-3-carboxamide] | 0.3
Cc1nc2c(OCC3CCCCC3)cccn2c1C(=O)NC(C)CO (centres unmarked) [Example 84, 8-(cyclohexylmethoxy)-N-(1-hydroxypropan-2-yl)-2-methylimidazo[1,2-a]pyridine-3-carboxamide] | 0.3
Cc1nc2c(OCC3CCCCC3)cccn2c1C(=O)NC(CO)CO [Example 85, 8-(cyclohexylmethoxy)-N-(1,3-dihydroxypropan-2-yl)-2-methylimidazo[1,2-a]pyridine-3-carboxamide] | 0.38
Cc1nc2c(OCC3CCCCC3)cccn2c1C(=O)NCCOCCO [Example 86, 8-(cyclohexylmethoxy)-N-[2-(2-hydroxyethoxy)ethyl]-2-methylimidazo[1,2-a]-pyridine-3-carboxamide] | 0.65
Cc1nc2c(OCC3CCCCC3)cccn2c1C(=O)NC(C)(C)C(C)O (centres unmarked) [Example 87, 8-(cyclohexylmethoxy)-N-(3-hydroxy-2-methylbutan-2-yl)-2-methylimidazo[1,2-a]pyridine-3-carboxamide] | 1.0
CC[C@@H](CO)NC(=O)c1c(C)nc2c(OCC3CCCCC3)cccn12 [Example 88, 8-(cyclohexylmethoxy)-N-[(2S)-1-hydroxybutan-2-yl]-2-methylimidazo[1,2-a]pyridine-3-carboxamide] | 1.0
CCC[C@@H](CO)NC(=O)c1c(C)nc2c(OCC3CCCCC3)cccn12 [Example 89, 8-(cyclohexylmethoxy)-N-[(2S)-1-hydroxypentan-2-yl]-2-methylimidazo[1,2-a]pyridine-3-carboxamide] | 1.0
